Laboratory results as given in patent US9533983B2, “Antiplatelet agent” (Mitsubishi Tanabe Pharma Corporation, priority 2009, dated 2017).

Columns and labels:
[1] = tested on: Ristocetin-Induced Platelet Aggregation; assay: Platelet aggregation inhibitory activity: ristocetin-induced platelet aggregation in platelet rich plasma; format: cell-based; conditions: Cavia porcellus, guinea pig PRP
Protocol: (§1) A blood of a guinea pig was sampled by using a 1/10 volume of a 3.8% sodium citrate as a platelet aggregation inhibitor, and a platelet rich plasma (PRP) was separated by centrifuging the blood sample at 1100 rpm for 10 min. After fractionating the PRP in the upper layer, the lower layer was centrifuged at 3000 rpm for 10 min to fractionate the platelet poor plasma (PPP). To 100 μL of PRP, a 1 μL solution of each compound was added, and after still standing at 37° C. for 1 min, the mixture was stirred at 37° C. for 1 min by a stirrer. Then, 11 μL of collagen, ristocetin, or ADP was added thereto to induce the platelet aggregation. The platelet aggregation ability was measured by using the mCM hematolaser 313M (L-M-S Inc.). Based on the assumption that a light transmittance of PPP corresponds to a 100% coagulation value, an aggregation rate at each concentration of the compound was determined, then, an IC50 value was calculated therefrom.
[Platelet Aggregation Inhibitory Activities: Ristocetin-Induced Platelet Aggregation]

[2] = tested on: Collagen-Induced Platelet Aggregation; assay: Platelet aggregation inhibitory activity: collagen-induced platelet aggregation in platelet rich plasma; format: cell-based; conditions: Cavia porcellus, guinea pig PRP
Protocol: as §1
[Platelet Aggregation Inhibitory Activities: Collagen-Induced Platelet Aggregation]

| Compound | IC50 [1] [nM] | IC50 [2] [nM] |
| --- | --- | --- |
| COc1ccc(-n2c(-c3ccccn3)nc3cc(C(F)(F)F)c(Cl)cc32)cn1 [Example 55, 6-chloro-1-(6-methoxypyridin-3-yl)-2-pyridin-2-yl-5-(trifluoromethyl)-1H-benzimidazole] | 60 | 84 |
| CCc1ccc(-c2nc3cc(C(F)(F)F)ccc3n2-c2ccc(OC)nn2)nc1 [Example 56, 2-(5-ethylpyridin-2-yl)-1-(6-methoxypyridazin-3-yl)-5-(trifluoromethyl)-1H-benzimidazole] | 28 | 47 |
| COc1ccc(-n2c(-c3cc(C)ccn3)nc3cc(C(F)(F)F)ccc32)nn1 [Example 58, 1-(6-methoxypyridazin-3-yl)-2-(4-methylpyridin-2-yl)-5-(trifluoromethyl)-1H-benzimidazole] | 280 | 170 |
| COc1ccc(-n2c(-c3cc(C)on3)nc3cc(C(F)(F)F)ccc32)nn1 [Example 72, 2-(5-methylisoxazol-3-yl)-1-(6-methoxypyridazin-3-yl)-5-(trifluoromethyl)-1H-benzimidazole] | 130 | 180 |
| COc1ccc(-n2c(-c3ccn(C)n3)nc3cc(C(F)(F)F)cnc32)cn1 [Example 73, 3-(6-methoxypyridin-3-yl)-2-(1-methyl-1H-pyrazol-3-yl)-6-(trifluoromethyl)-3H-imidazo[4,5-b]pyridine] | 83 | 80 |
| COc1ccc(-n2c(-c3cc(Br)ccn3)nc3cc(C(F)(F)F)ccc32)nn1 [Example 75, 2-(4-bromopyridin-2-yl)-1-(6-methoxypyridazin-3-yl)-5-(trifluoromethyl)-1H-benzimidazole] | 380 | 200 |
| COc1ccc(-n2c(-c3cscn3)nc3cc(C(F)(F)F)ccc32)nn1 [Example 89, 1-(6-methoxypyridazin-3-yl)-2-(1,3-thiazol-4-yl)-5-(trifluoromethyl)-1H-benzimidazole] | 70 | 53 |
| COc1ccc(-n2c(-c3cnc(C)cn3)nc3cc(C(F)(F)F)ccc32)nn1 [Example 90, 1-(6-methoxypyridazin-3-yl)-2-(5-methylpyrazine-2-yl)-5-(trifluoromethyl)-1H-benzimidazole] | 20 | 60 |
| COc1ccc(-n2c(-c3cc(C)on3)nc3cc(C(F)(F)F)cnc32)cn1 [Example 108, 3-(6-methoxypyridin-3-yl)-2-(5-methylisoxazol-3-yl)-6-(trifluoromethyl)-3H-imidazo[4,5-b]pyridine] | 100 | 210 |
| COc1ccc(-n2c(-c3csc(C)n3)nc3cc(C(F)(F)F)cnc32)cn1 [Example 110, 3-(6-methoxypyridin-3-yl)-2-(2-methyl-1,3-thiazol-4-yl)-6-(trifluoromethyl)-3H-imidazo[4,5-b]pyridine] | 120 | 130 |
| COc1ccc(-n2c(-c3ccccn3)nc3cc(OC(F)F)cnc32)cn1 [Example 146, 6-(difluoromethoxy)-3-(6-methoxypyridin-3-yl)-2-pyridin-2-yl-3H-imidazo[4,5-b]pyridine] | 66 | 78 |
| CNc1ccc(-n2c(-c3ccc(C#N)cn3)nc3cc(C(F)(F)F)cnc32)cn1 [Example 150, 6-{3-[6-(methylamino)pyridin-3-yl]-6-(trifluoromethyl)-3H-imidazo[4,5-b]pyridin-2-yl]nicotinonitrile] | 205 | 205 |
| COc1cnc(-n2c(-c3cocn3)nc3cc(C(F)(F)F)cnc32)cn1 [Example 151, 3-(5-methoxypyrazine-2-yl)-2-(1,3-oxazol-4-yl)-6-(trifluoromethyl)-3H-imidazo[4,5-b]pyridine] | 24 | 24 |
| COc1cnc(-n2c(-c3coc(C)n3)nc3cc(C(F)(F)F)cnc32)cn1 [Example 152, 3-(5-methoxypyrazine-2-yl)-2-(2-methyl-1,3-oxazol-4-yl)-(trifluoromethyl)-3H-imidazo[4,5-b]pyridine] | 86 | 86 |
| COc1cnc(-n2c(-c3cc(C)on3)nc3cc(C(F)(F)F)cnc32)cn1 [Example 154, 3-(5-methoxypyrazine-2-yl)-2-(5-methylisoxazol-3-yl)-6-(trifluoromethyl)-3H-imidazo[4,5-b]pyridine] | 129 | 129 |
| CCCOc1cnc2c(c1)nc(-c1ccccn1)n2-c1ccc(OC)nc1 [Example 173, 3-(6-methoxypyridin-3-yl)-6-propoxy-2-pyridin-2-yl-3H-imidazo[4,5-b]pyridine] | 85 | 77 |

Continued by falling IC50 [1], values first:

| IC50 [1] [nM] | IC50 [2] [nM] | Compound |
| --- | --- | --- |
| 500 | 220 | COc1ccc(-n2c(-c3ncccc3C#N)nc3cc(C(F)(F)F)ccc32)nn1 [Example 81, 2-[1-(6-methoxypyridazin-3-yl)-5-(trifluoromethyl)-1H-benzimidazole-2-yl]nicotinonitrile] |
| 230 | 170 | CSc1ccc(-n2c(-c3ccccn3)nc3cc(C(F)(F)F)ccc32)nn1 [Example 67, 1-[6-(methylthio)pyridazin-3-yl]-2-pyridin-2-yl-5-(trifluoromethyl)-1H-benzimidazole] |
| 170 | 177 | Cc1ccc(-n2c(-c3ccc(C#N)cn3)nc3cc(C(F)(F)F)cnc32)cn1 [Example 130, 6-[3-(6-methylpyridin-3-yl)-6-(trifluoromethyl)-3H-imidazo[4,5-b]pyridin-2-yl]nicotinonitrile] |
| 106 | 74 | COc1ccc(-n2c(-c3ccccn3)nc3cc(OC(C)C)cnc32)cn1 [Example 145, 6-isopropoxy-3-(6-methoxypyridin-3-yl)-2-pyridin-2-yl-3H-imidazo[4,5-b]pyridine] |
| 100 | 190 | COc1ccc(-n2c(-c3nccs3)nc3cc(C(F)(F)F)ccc32)nn1 [Example 54, 1-(6-methoxypyridazin-3-yl)-2-(1,3-thiazol-2-yl)-5-(trifluoromethyl)-1H-benzimidazole] |
| 100 | 190 | COc1ccc(-n2c(-c3csc(C)n3)nc3cc(C(F)(F)F)ccc32)nn1 [Example 94, 1-(6-methoxypyridazin-3-yl)-2-(2-methyl-1,3-thiazol-4-yl)-5-(trifluoromethyl)-1H-benzimidazole] |
| 90 | 194 | COc1ccc(-n2c(-c3ncoc3C)nc3cc(C(F)(F)F)cnc32)cn1 [Example 126, 3-(6-methoxypyridin-3-yl)-2-(5-methyl-1,3-oxazol-4-yl)-6-(trifluoromethyl)-3H-imidazo[4,5-b]pyridine] |
| 86 | 60 | COc1ccc(-n2c(-c3coc(C)n3)nc3cc(C(F)(F)F)ccc32)nn1 [Example 139, 1-(6-methoxypyridazin-3-yl)-2-(2-methyl-1,3-oxazol-4-yl)-5-(trifluoromethyl)-1H-benzimidazole] |
| 60 | 60 | COc1ccc(-n2c(-c3coc(C)n3)nc3cc(OC(F)(F)F)ccc32)nn1 [Example 158, 1-(6-methoxypyridazin-3-yl)-2-(2-methyl-1,3-oxazol-4-yl)-5-(trifluoromethoxy)-1H-benzimidazole] |
| 42 | 57 | COc1ccc(-n2c(-c3ccc([N+](=O)[O-])cn3)nc3cc(C(F)(F)F)ccc32)nn1 [Example 53, 1-(6-methoxypyridazin-3-yl)-2-(5-nitropyridin-2-yl)-5-(trifluoromethyl)-1H-benzimidazole] |
| 40 | 34 | COc1ccc(-n2c(-c3coc(C)n3)nc3cc(C(F)(F)F)cnc32)cn1 [Example 122, 3-(6-methoxypyridin-3-yl)-2-(2-methyl-1,3-oxazol-4-yl)-6-(trifluoromethyl)-3H-imidazo[4,5-b]pyridine] |
| 35 | 66 | COc1ccc(-n2c(-c3cocn3)nc3cc(C(F)(F)F)cnc32)cn1 [Example 107, 3-(6-methoxypyridin-3-yl)-2-(1,3-oxazol-4-yl)-6-(trifluoromethyl)-3H-imidazo[4,5-b]pyridine] |
| 29 | 29 | COc1ccc(-n2c(-c3cocn3)nc3cc(OC(F)(F)F)ccc32)nn1 [Example 155, 1-(6-methoxypyridazin-3-yl)-2-(1,3-oxazol-4-yl)-5-(trifluoromethoxy)-1H-benzimidazole] |
| 28 | 28 | COc1ccc(-n2c(-c3ccc(Cl)cn3)nc3cc(C(F)(F)F)cnc32)cn1 [Example 159, 2-(5-chloropyridin-2-yl)-3-(6-methoxypyridin-3-yl)-6-(trifluoromethyl)-3H-imidazo[4,5-b]pyridine] |
| 27 | 29 | COc1cnc(-n2c(-c3ccccn3)nc3cc(C(F)(F)F)cnc32)cn1 [Example 125, 3-(5-methoxypyrazine-2-yl)-2-pyridin-2-yl-6-(trifluoromethyl)-3H-imidazo[4,5-b]pyridine] |
| 23 | 95 | COc1ccc(-n2c(-c3cscn3)nc3cc(C(F)(F)F)cnc32)cn1 [Example 109, 3-(6-methoxypyridin-3-yl)-2-(1,3-thiazol-4-yl)-6-(trifluoromethyl)-3H-imidazo[4,5-b]pyridine] |
| 22 | 30 | COc1cnc(-n2c(-c3ccc(F)cn3)nc3cc(C(F)(F)F)cnc32)cn1 [Example 144, 2-(5-fluoropyridin-2-yl)-3-(5-methoxypyrazine-2-yl)-6-(trifluoromethyl)-3H-imidazo[4,5-b]pyridine] |
